Tests used:
[1] = test system: house dust mite proteins (two major HDM allergens group 1 and 2); experiment: SDS-PAGE denaturing/neutralizing activity against house dust mite proteins; format: biochemical; set-up: key: +++: comparable to or higher than the activity of the positive control tannic acid; ++: neutralizing activity somewhat lower than that of the positive control; conditions: compounds; incubated with mite proteins 1 hr at 25 C; relative to tannic acid
Text: Adult mites (both sexes, 6-8 days old) were extracted, as described previously [Nakada, S., K. Ito, C. Urata, Y. Sakamoto, M. Hasegawa, T. Nakagawa & T. Miyamoto. 1985. Allergenecity and immunogenicity of house-dust mite (Dermatophagoides farinae) antigens treated with glutaraldehyde. Ann. Allergy 54: 437441; Tovey, E. R. & B. A. Baldo. 1987. Comparison by electroblotting of IgE-binding components in ectracts of house dust mite bodies and spent mite culture. J. Allergy Clin. Immunol. 79: 93102.]. In brief, whole bodies (80 mg fresh weight/4 mL buffer) were homogenized on ice in 0.01 M phosphate-buffered saline (PBS) (pH 7.4) for 15 min. The homogenate was then stirred at 0° C. for 1 hr, centrifuged for 30 min at 14000 g, and concentrated by ultrafiltration to 1 mg/mL of protein.
The protein content was determined using a Bradford protein assay kit (Pierce, Rockford, Ill.). Bovine serum albumin (Pierce, Rockford, Ill.) was used as the standard. Precision Plus Protein Standards was supplied by Bio-Rad (Hercules, Calif.).
SDS-PAGE was performed according to the modified method of Laemmli [Laemmli, U.K. 1970. Cleavage of structural proteins during the assembly of the head of bacteriophage T4. Nature 227: 680685]. Based on the preliminary test results, mixtures of mite proteins ([…]) and each test material ([…]) in 4.5 μL of dimethyl sulfoxide (DMSO) were incubated for 1 hr at 25±1° C. Negative controls consisted of 4.5 μL of DMSO. Tannic acid or 3% tannic acid solution served as a positive control and was similarly formulated. Samples were mixed with an equal volume of SDS sample buffer (4% SDS, 4% mercaptoethanol, and 100 mM Tris-HCl, pH 8.0), boiled for 10 min, and resolved by electrophoresis on 12% (w/v) polyacrylamide gels by using a Mini-Protean 3 electrophoresis cell (Bio-Rad, Hercules, Calif.). After electrophoresis at 120 V for 80 min, the gels were stained with 0.1% Coomassie brilliant blue R-250 for quantification. The intensity of denaturing activity of each test material toward the two major HDM allergens group 1 and 2 was determined using a Gel Doc XR image analyzer with Quantity One Software (Bio-Rad, Hercules, Calif.) according to the manufacturer's instructions.
In FIG. 1, lane M represents a protein marker; land Ext represents a negative control loaded only with untreated house dust mite protein; lanes 5 and 6 indicate moderate activity; lanes 1, 2, 3 and 4 indicate strong activity; and lane TA represents a positive control treated with tannic acid.
Plant essential oils and compounds, confirmed to have neutralizing activity against house dust mites in the above experiments, are summarized in Tables 7 and 8 below, respectively.

[2] = test system: Dermatophagoides farina house dust mite proteins; experiment: Dot-blot immunoassay for human-specific IgE reactivity (inhibition of allergenicity); format: binding; set-up: unit not given here; conditions: 500 μg each, allergic patient's serum IgE
Method: (§1) In addition, a dot-blot immunoassay for human-specific IgE reactivity was performed, as described previously [Tsai, L. C., Y. C. Sun, P. L. Chao, M. W. Hung, I. C. Kuo, et al. 2000. Protein sequence analysis and mapping of IgE and IgG epitopes of an allergenic 98 kDa Dermatophagoides farinae paramyosin, Der f 11. Allergy 55: 141147]. House dust mite proteins (10 μg) were applied to a PVDF membrane using a Hybri-Dot Manifold (Life Technologies, Gaithersburg, Md.) according to the manufacturer's instructions. After blocking with 0.1% PBS-T containing 5% skim milk, the membrane was incubated with 1:500 diluted allergic patient's antiserum at 4° C. overnight. After washing with 0.1% PBS-T three times, the membrane was incubated with 1:20000 diluted goat anti-human IgG (H+L)-HRP and IgE-HRP conjugate (Zymed Laboratories, Sanfrancisco, Calif.) for 1 hr at 25±1° C. The essential oils and compounds (500 μg each) were tested with the patient's serum which was diluted 1:250, and then incubated 1:5000 diluted IgE-HRP conjugate antibodies. After additional washing, as stated previously, the blot was incubated with ECL chemiluminescence reagent for 1 min and exposed to X-ray films for 5-20 min at room temperature. The intensity of the IgE-reacting dot was determined using a Bio-Rad Gel Doc XR image analyzer, as stated previously. Tannic acid served as a standard reference and was similarly formulated.
(§2) The reference numerals used in FIG. 2 indicate the following: C: untreated control; T: tannic acid; 1: spearmint essential oil; 2: Summer savory essential oil; 3: Oregano essential oil; 4: Carrot seed essential oil; 5: Catnip essential oil; 6: Mandarin essential oil; 7: Lime essential oil; and 8: Celery essential oil.
(§3) The inhibitory activities of the above-described plant essential oils and compounds against the allergenicity of two species of house dust mite proteins are shown in Tables 9 and 10 below, respectively. […]

[3] = test system: Dermatophagoides pteronyssinus house dust mite proteins; experiment: as above; format: binding; conditions: 500 μg each, allergic patient's serum IgE
Method: as §1, §2, §3

[4] = test system: adult American house dust mites (Dermatophagoides farina); experiment: Spray bioassay of spray formulations (acaricidal activity); format: in vivo; conditions: sprayed on cotton fabric, 24 h post-treatment
Method: The acaricidal effect of each of carrot seed essential formulations and spearmint essential oil formulations, dissolved in ethanolpolyoxyethylene+polyoxypropylene (9:1) styrenated phenyl ether, was evaluated using a spray bioassay.
In brief, a spray bioassay was used to evaluate the efficacy of four experimental spray formulations against adult American house dust mites (Dermatophagoides farina) [Lee, J. H., J. R. Kim, Y. R. Koh & Y. J. Ahn. 2013. Contact and fumigant toxicity of Pinus densiflora needle hydrodistillate constituents and related compounds and efficacy of spray formulations containing the oil to Dermatophagoides farinae. Pest Manag. Sci. 69: 696702]. Each test solution was sprayed two times successively at 10 cm upwards onto the 5 cm diameter black cotton-fabric circle. After drying for 5 min, each fabric circle was placed onto the bottom section of a disposable Petri dish (5 cm diameter×1 cm height). Groups of 40-50 adult mites (both sexes, 7-10 days old) were placed separately onto the treated fabric circles, and each dish was sealed with the original tight-fitting lid. 2.5 g/L of the commercial acaricide d-phenothrin or permethnrin (cis:trans, 25:75) spray served as a positive control. […] Mortalities were determined 24 h post-treatment under a dissecting microscope (×20). […]

[5] = test system: group 1 allergens (Der p I and Der f I); conditions: 3% tannic acid solution (wt/vol); cited from earlier work
[6] = test system: group 2 allergens (Der p II and Der f II); conditions: 3% tannic acid solution (wt/vol), compared with group 1; cited from earlier work

Row | SMILES | Neutralizing activity [1] | Inhibition of allergenicity, Dermatophagoides farina ([2]; compounds) | Inhibition of allergenicity, Dermatophagoides pteronyssinus ([3]; compounds) | further results
1 | C=CCN=C=S [Allyl isothiocyanate] | +++ | 82.1 | 73.0 | –
2 | CC=Cc1ccc(OC)cc1 [Anethole] | ++ | 62.3 | 52.1 | –
3 | C/C=C\c1cc(OC)c(OC)cc1OC [Beta-asarone] | ++ | 64.9 | 68.5 | –
4 | CC12CCC(CC1=O)C2(C)C (stereo not drawn) [Camphor] | ++ | 78.2 | 77.9 | –
5 | CC(C)=CCCC(C)CCO (stereo not drawn) [Citronellol] | ++ | 61.2 | 49.2 | –
6 | CC(C)c1ccccc1 [Cumene] | ++ | 60.9 | 47.8 | –
7 | CC(C)c1ccc(C=O)cc1 [Cuminaldehyde] | +++ | 80.4 | 76.1 | –
8 | CC1=CCC2C(C1)C2(C)C (stereo not drawn) [Delta-3-carene] | +++ | 77.9 | 78.1 | –
9 | CC(C)=CCC/C(C)=C/C=O [Geranial] | +++ | 72.6 | 68.1 | –
10 | C=C(C)[C@@H]1CC[C@@H](C)C[C@H]1O [Isopulegol] | ++ | 76.5 | 57.4 | –
11 | C=C(C)[C@H](CO)CC=C(C)C [Lavandulol] | ++ | 74.4 | 62.7 | –
12 | C=CCc1cc(OC)c2c(c1)OCO2 [Myristicin] | +++ | 76.3 | 67.0 | –
13 | CC(C)=CCC/C(C)=C\C=O [Neral] | ++ | 77.2 | 56.5 | –
14 | CC(C)=CCC/C(C)=C\CO [Nerol] | ++ | 67.9 | 42.3 | –
15 | C=CC(C)(O)CCC=C(C)CCC=C(C)C (stereo not drawn) [Nerolidol] | ++ | 42.3 | 67.7 | –
16 | C=C(C)[C@@H]1CC=C(CO)CC1 [Perilla alcohol] | ++ | 68.7 | 56.5 | –
17 | C=C(C)C1CC=C(C=O)CC1 (stereo not drawn) [Perillaldehyde] | +++ | 79.1 | 76.4 | –
18 | CC1(C)C(C=C(Cl)Cl)C1C(=O)OCc1cccc(Oc2ccccc2)c1 (stereo not drawn) [Permethrin] | – | – | – | mortality at 2500 µg/mL ([4]; Dermatophagoides, spearmint essential oil sprays, permethrin spray 2.5 g/L as positive control, read-out: Mortality (%, standard error)): 17.3 ± 3.3%
19 | O=C(OC[C@H]1O[C@@H](OC(=O)c2cc(O)c(O)c(OC(=O)c3cc(O)c(O)c(O)c3)c2)[C@H](OC(=O)c2cc(O)c(O)c(OC(=O)c3cc(O)c(O)c(O)c3)c2)[C@@H](OC(=O)c2cc(O)c(O)c(OC(=O)c3cc(O)c(O)c(O)c3)c2)[C@@H]1OC(=O)c1cc(O)c(O)c(OC(=O)c2cc(O)c(O)c(O)c2)c1)c1cc(O)c(O)c(OC(=O)c2cc(O)c(O)c(O)c2)c1 [Tannic acid, reference compound] | – | – | – | Inhibition of allergenicity, Dermatophagoides farina ([2]; essential oils): 87.2; Inhibition of allergenicity, Dermatophagoides pteronyssinus ([3]; essential oils): 81.1; Denaturation of group 1 allergens [5]: denatures; Denaturation of group 2 allergens [6]: somewhat less effective
20 | Cc1ccc(C(C)C)c(O)c1 [Thymol] | +++ | 79.4 | 67.9 | –
21 | CC(C)=CC1C(C(=O)OCc2cccc(Oc3ccccc3)c2)C1(C)C (stereo not drawn) [d-Phenothrin, d-phenothrin] | – | – | – | Mortality (%, standard error) ([4]; carrot seed essential oil sprays, d-phenothrin spray 2.5 g/L as positive control): 8.3 ± 1.7 d %

— patent US20180249717A1, “HOUSE DUST MITE ALLERGY PROTEIN REMOVER, AND COMPOSITION THEREOF” (AYJ BIO LAB INC., priority 2015, published 2018)
